Values after ≈ are worked out from the molar mass of the structure shown. Where two headings read alike, the source gives them in different places.
How the values were obtained:
[1] = Partition coefficient Log (D), 1-octanol / pH 7.4 buffer; type: physicochemical; settings: water-saturated 1-octanol / pH 7.4 buffer, room temperature
Procedure: The partition coefficient, Log (D), between water-saturated 1-octanol and pH 7.4 buffer was determined for the test compounds. The buffer was prepared as described in section 2. A 12 μl aliquot of a 10 mM stock solution in DMSO was introduced to a vial containing 0.60 mL of octanol and 0.60 mL of buffer at room temperature. Testosterone was also added to a final concentration of 100 μM as an internal control. The solution was vortexed for 60 minutes and centrifuged at 10,000 rpm for 10 minutes. The organic and aqueous layers were removed. Serial dilutions of the organic layer were made with 50% methanol except for the initial dilution, which was made in 100% methanol. Serial dilutions of the aqueous layer were made in the pH 7.4 buffer. The diluted samples were then assayed by LC/MS for the compound as well as for testosterone. The Log of the ratio of peak area responses was calculated to obtain the Log (D). Typical Log D values for testosterone are from 3.0-3.3.

[2] = Bi-directional permeability, CACO-2; type: in vitro ADME
Procedure: (§1) Caco-2 monolayers were grown to confluence on collagen-coated, microporous, polycarbonate membranes in 12-well Costar Transwell plates. Details of the plates and their certification are shown below. The permeability assay buffer was Hank's Balanced Salt Solution containing 10 mM HEPES and 15 mM glucose at a pH of 7.0±0.2. The dosing solution concentration was 10 μM in assay buffer. At each time point, 1 and 2 hours, a 200-μL aliquot was taken from the receiver chamber and replaced with fresh assay buffer. Cells were dosed on the apical side (A-to-B) or basolateral side (B-to-A) and incubated at 37° C. with 5% CO2 and 90% relative humidity. Each determination was performed in duplicate. The important experimental parameters are outlined below. Permeability through a cell-free (blank) membrane was studied to determine non-specific binding and free diffusion of the compound through the device. Lucifer yellow flux was also measured for each monolayer after being subjected to the test compounds to ensure no damage was inflicted to the cell monolayers during the flux period.
(§2) All samples were assayed by LC/MS using electrospray ionization. Typical LC/MS conditions are as follows:
(§3) dCr/dt is the cumulative concentration in the receiver compartment versus time in M s^−1.
(§4) Vr is the volume of the receiver compartment in cm^3.
(§5) Vd is the volume of the donor compartment in cm^3.
(§6) A is the area of the cell monolayer (1.13 cm^2 for 12-well Transwell).
(§7) C0 is the concentration of the dosing solution in M.
(§8) Cr^final is the cumulative receiver concentration in M at the end of the incubation period.
(§9) Cd^final is the concentration of the donor in M at the end of the incubation period.

Caco-2 monolayers = experiment: Bi-directional permeability, CACO-2; type: in vitro ADME; settings: for Papp B-A / Papp A-B Ratio: Caco-2 efflux ratio
Procedure: as §1, §2, §3, §4, §5, §6, §7, §8, §9

[3] = Aqueous equilibrium solubility in pH 7.4 buffer; settings: for Solubility pH 7.4: pH 7.4 aqueous buffer, room temperature, equilibrium
Procedure: Equilibrium solubility was measured in pH 7.4 aqueous buffer. The buffer was prepared by adjusting the pH of a 0.07 M solution of NaH2PO4 to pH 7.4 with 10 N NaOH. […] At least 1 mg of powder was combined with 1 mL of buffer to make >1 mg/mL mixture. These samples were shaken for ≧2 hours and left to stand overnight at room temperature. The samples were then filtered through a 0.45-μm Nylon syringe filter that was first saturated with the sample. The filtrate was sampled twice, consecutively. The filtrate was assayed by HPLC against standards prepared in methanol.

[4] = Determination of LC Log P (experimental); type: physicochemical
Procedure: Liquid chromatography retention times (RT) are measured for each substance using the conditions described below. A linear equation is derived relating RT to log P is developed from the data for the log P standards. The log P for the test compound is calculated from the log P/retention time equation.

[5] = test system: mutated ecdysone receptor-based gene switch; experiment: In vivo SEAP induction, ligand by IP injection; parameters: species or system C57BL/6 mouse; settings: for Secreted Alkaline Phosphatase (percentage of GS ™-E ligand induction) Day 2 / Secreted Alkaline Phosphatase (percentage of GS ™-E ligand induction) Day 3 / Secreted Alkaline Phosphatase (percentage of GS ™-E ligand induction) Day 11: mouse serum; for Secreted Alkaline Phosphatase (percentage of GS ™-E ligand induction) Day 2: IP 2.6 μmol ligand 3 days after electroporation, day 2 after ligand; for Secreted Alkaline Phosphatase (percentage of GS ™-E ligand induction) Day 3 / Secreted Alkaline Phosphatase (percentage of GS ™-E ligand induction) Day 11: IP 2.6 μmol ligand; for Secreted Alkaline Phosphatase (percentage of GS ™-E ligand induction) Day 3: day 3 after ligand; for Secreted Alkaline Phosphatase (percentage of GS ™-E ligand induction) Day 11: day 11 after ligand
Outline: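 Gene switch plasmids (receptor under CMV promoter) electroporated into quadriceps of C57BL/6 mice; 3 days later ligand given IP at 2.6 μmol or 26 nmol in 50 μL DMSO per mouse. Serum SEAP measured by chemiluminescence 2-11 days after dosing, averaged over four animals, expressed as % of GS™-E ligand induction.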

[6] = human, Caco-2, pH 7, Papp, A-to-B Avg
[7] = human, Caco-2, pH 7, Papp, A-to-B Rep. 2

SMILES	Log(D) Octanol/pH 7.4 [1]	Significant Efflux (Caco-2 monolayers; Caco-2)	Secreted Alkaline Phosphatase (percentage of GS ™-E ligand induction) Day 2 [5]	Secreted Alkaline Phosphatase (percentage of GS ™-E ligand induction) Day 3 [5]	Secreted Alkaline Phosphatase (percentage of GS ™-E ligand induction) Day 11 [5]	Papp Blank (Caco-2 monolayers; Caco-2)	Papp, A-to-B Avg (Caco-2 monolayers; Caco-2)	Papp, A-to-B Rep. 1 (Caco-2 monolayers; Caco-2)	Papp, A-to-B Rep. 2 (Caco-2 monolayers; Caco-2)	Papp, B-to-A Avg (Caco-2 monolayers; Caco-2)	Papp, B-to-A Rep. 1 (Caco-2 monolayers; Caco-2)	Papp, B-to-A Rep. 2 (Caco-2 monolayers; Caco-2)	Papp B-A / Papp A-B Ratio (Caco-2 monolayers)	Solubility pH 7.4 [3]	further results
CCc1ccc(C(=O)NN(C(=O)c2cc(C)cc(C)c2)C(C)(C)C)cc1 [RG-102125]	3.2	–	–	–	–	–	–	–	–	–	–	–	–	–	recovery at 2 h, 10 μM ([2]; Caco-2, pH 7, Percent Recovery Blank): 62%; Papp at 2 h, 10 µM ([2]; Caco-2, pH 7, cell-free (blank) membrane, 10 μM, read-out: Papp Blank): 219 nm/s; Papp B→A at 2 h, 10 µM ([2]; human, Caco-2, pH 7, Caco-2, 10 μM, average of 2 replicates, read-out: Papp, B-to-A Avg): 202 nm/s; Papp A→B at 2 h, 10 µM ([2]; human, Caco-2, pH 7, Caco-2, 10 μM, replicate 1, read-out: Papp, A-to-B Rep. 1): 257 nm/s; Papp B→A at 2 h, 10 µM ([2]; human, Caco-2, pH 7, Caco-2, 10 μM, replicate 1, read-out: Papp, B-to-A Rep. 1): 207 nm/s; Papp B→A at 2 h, 10 µM ([2]; human, Caco-2, pH 7, Caco-2, 10 μM, replicate 2, read-out: Papp, B-to-A Rep. 2): 197 nm/s; Papp A→B at 2 h, 10 µM [2, 6]: 260 nm/s; Papp A→B at 2 h, 10 µM [2, 7]: 263 nm/s; recovery at 2 h, 10 μM ([2]; human, Caco-2, pH 7, Percent Recovery A-to-B): 84%; recovery at 2 h, 10 μM ([2]; human, Caco-2, pH 7, Percent Recovery B-to-A): 63%; Absorption Potential (Caco-2 monolayers; classification from Papp(A-to-B)): High (Papp(A-to-B) ≧ 1.0 × 10^−6 cm/s High); Significant Efflux (Caco-2 monolayers; classification from Papp(B-to-A) and ratio): No; solubility ([3]; pH 7.4 aqueous phosphate buffer, pH 7.4, aqueous buffer, thermodynamic from solid): 0.6 µg/mL (≈ 1.7 µM)
Cc1cc(C)cc(C(=O)N(NC(=O)c2ccc3c(c2C)OCCO3)C(C)(C)C)c1 [RG-102317, N-(5-methyl-1,4-benzodioxan-6-carbonyl)-N′-(tert-butyl)-N′-(3,5-dimethylbenzoyl)hydrazine]	3.6	No	112 percentage of GS ™-E ligand induction	116 percentage of GS ™-E ligand induction	61 percentage of GS ™-E ligand induction	–	–	–	–	–	–	–	–	–	chromatographic logP [4]: 3.6; Papp at 2 h, 10 µM ([2]; Caco-2, pH 7, Papp Blank): 279 nm/s; recovery at 2 h, 10 μM ([2]; Caco-2, pH 7, cell-free (blank) membrane, 10 μM, read-out: Percent Recovery Blank): 87%; efflux ratio at 2 h, 10 μM ([2]; human, Caco-2, pH 7): 0.8; recovery at 2 h, 10 μM ([2]; human, Caco-2, pH 7, Caco-2, apical-to-basolateral, 10 μM, read-out: Percent Recovery A-to-B): 91%; recovery at 2 h, 10 μM ([2]; human, Caco-2, pH 7, Caco-2, basolateral-to-apical, 10 μM, read-out: Percent Recovery B-to-A): 86%; Papp A→B at 2 h, 10 µM [2, 6]: 280 nm/s; Papp A→B at 2 h, 10 µM ([2]; human, Caco-2, pH 7, Papp, A-to-B Rep. 1): 286 nm/s; Papp A→B at 2 h, 10 µM [2, 7]: 273 nm/s; Papp B→A at 2 h, 10 µM ([2]; human, Caco-2, pH 7, Papp, B-to-A Avg): 211 nm/s; Papp B→A at 2 h, 10 µM ([2]; human, Caco-2, pH 7, Papp, B-to-A Rep. 1): 210 nm/s; Papp B→A at 2 h, 10 µM ([2]; human, Caco-2, pH 7, Papp, B-to-A Rep. 2): 212 nm/s
CCCC(N(NC(=O)c1cccc(OC)c1C)C(=O)c1cc(C)cc(C)c1)C(C)(C)C (stereo not drawn) [RG-115823]	3.3	No	129 percentage of GS ™-E ligand induction	183 percentage of GS ™-E ligand induction	2,652 percentage of GS ™-E ligand induction	24.2 10^−6 cm/s	17.6 10^−6 cm/s	17.4 10^−6 cm/s	17.8 10^−6 cm/s	17.1 10^−6 cm/s	18.8 10^−6 cm/s	15.4 10^−6 cm/s	1.0	0.0003 mg/mL	Secreted Alkaline Phosphatase Day 2 ([5]; IP 26 nmol ligand, day 2): 3,788 ng/ml mouse sera; Secreted Alkaline Phosphatase Day 3 ([5]; IP 26 nmol ligand, day 3): 2,705 ng/ml mouse sera; Secreted Alkaline Phosphatase Day 7 ([5]; IP 26 nmol ligand, day 7): 373 ng/ml mouse sera
COc1cnccc1C(=O)N(NC(=O)c1cccc(O)c1C)C(C)(C)C [RG-115595]	2.1	No	–	–	–	33.2 10^−6 cm/s	19.2 10^−6 cm/s	19.6 10^−6 cm/s	18.9 10^−6 cm/s	30.7 10^−6 cm/s	29.8 10^−6 cm/s	31.7 10^−6 cm/s	1.6	0.026 mg/mL	–
CCc1c(C(=O)NN(C(=O)c2ccc(F)c(C(F)(F)F)c2)C(C)(C)C)ccc2c1OCCO2 [RG-115280]	3.9	No	–	–	–	1.88 10^−6 cm/s	1.27 10^−6 cm/s	1.24 10^−6 cm/s	1.30 10^−6 cm/s	1.49 10^−6 cm/s	1.50 10^−6 cm/s	1.48 10^−6 cm/s	1.2	0.0012 mg/mL	–
CC(=O)c1ccc(C(=O)NN(C(=O)c2cc(C(=O)O)cc(C(=O)O)c2)C(C)(C)C)cc1 [RG-100150]	−2.1	No	–	–	–	36.9 10^−6 cm/s	0.18 10^−6 cm/s	0.19 10^−6 cm/s	0.18 10^−6 cm/s	0.33 10^−6 cm/s	0.33 10^−6 cm/s	0.34 10^−6 cm/s	–	≧1.0 mg/mL	–
Cc1c(C(=O)NN(C(=O)c2cc(F)c(F)c(F)c2)C(C)(C)C)ccc2c1CCCO2 [RG-115575, 3,4,5-Trifluoro-benzoic acid N-tert-butyl-N′-(5-methyl-chroman-6-carbonyl)-hydrazide]	–	–	74 percentage of GS ™-E ligand induction	78 percentage of GS ™-E ligand induction	69 percentage of GS ™-E ligand induction	–	–	–	–	–	–	–	–	–	chromatographic logP ([4]; from LC retention time against log P standards, read-out: LC LogP (exp)): 4.1

From patent US9102648B1, “Bioavailable diacylhydrazine ligands for modulating the expression of exogenous genes via an ecdysone receptor complex” (Intrexon Corporation, priority 2003, dated 2015)
